Results on two compounds are retold here after patent US8865759B2, “Use of dithiine-tetracarboximides for controlling phytopathogenic fungi” (priority 2008, dated 2014).

The data set is described as follows: logP determination by HPLC on reversed-phase column (C 18), EEC Directive 79/831 Annex V.A8. It counts as physicochemical. Conditions: reversed-phase C 18, 43° C., acidic range pH 2.7, 0.1% aqueous formic acid/acetonitrile.

Consider `CC(C(=O)O)n1c(=O)c2sc3c(=O)n(C(C)C(=O)O)c(=O)c3sc2c1=O` (centres unmarked) [Compound 24, 2,2′-(1,3,5,7-Tetraoxo-1,3,5,7-tetrahydro-2H,6H-[1,4]dithiino[2,3-c:5,6-c]dipyrrole-2,6-diyl)dipropanoic acid], for which the “log P” value is recorded as “log P = 1.76”. The same measure for `COCCn1c(=O)c2sc3c(=O)n(CCOC)c(=O)c3sc2c1=O` [Compound 12, 2,6-Bis(2-methoxyethyl)-1H,5H-[1,4]dithiino[2,3-c:5,6-c]dipyrrole-1,3,5,7(2H,6H)-tetrone]: “log P = 2.55”.
